This note sets out measurements from ChEMBL document CHEMBL3400108, “Synthesis and biological evaluation of open-chain analogs of cyclic peptides as inhibitors of cellular Shp2 activity” (Bioorg Med Chem, 2015).

Test [1] concerns HeLa. The test is described as follows: Antitumor activity against human HeLa cells. It is filed as functional, cell-based.
Test [2] concerns MDA-MB-231. The test is described as follows: Antitumor activity against human MDA-MB-231 cells. It is filed as functional, cell-based.
The nature of test [3]: Inhibition of IMPDH (unknown origin). Also on record: species or system Homo sapiens.
In test [4] the target is Acetylcholinesterase (Homo sapiens, UniProt P22303). The test is described as follows: Inhibition of AchE (unknown origin).
Chain of Acetylcholinesterase (P22303 whole entry): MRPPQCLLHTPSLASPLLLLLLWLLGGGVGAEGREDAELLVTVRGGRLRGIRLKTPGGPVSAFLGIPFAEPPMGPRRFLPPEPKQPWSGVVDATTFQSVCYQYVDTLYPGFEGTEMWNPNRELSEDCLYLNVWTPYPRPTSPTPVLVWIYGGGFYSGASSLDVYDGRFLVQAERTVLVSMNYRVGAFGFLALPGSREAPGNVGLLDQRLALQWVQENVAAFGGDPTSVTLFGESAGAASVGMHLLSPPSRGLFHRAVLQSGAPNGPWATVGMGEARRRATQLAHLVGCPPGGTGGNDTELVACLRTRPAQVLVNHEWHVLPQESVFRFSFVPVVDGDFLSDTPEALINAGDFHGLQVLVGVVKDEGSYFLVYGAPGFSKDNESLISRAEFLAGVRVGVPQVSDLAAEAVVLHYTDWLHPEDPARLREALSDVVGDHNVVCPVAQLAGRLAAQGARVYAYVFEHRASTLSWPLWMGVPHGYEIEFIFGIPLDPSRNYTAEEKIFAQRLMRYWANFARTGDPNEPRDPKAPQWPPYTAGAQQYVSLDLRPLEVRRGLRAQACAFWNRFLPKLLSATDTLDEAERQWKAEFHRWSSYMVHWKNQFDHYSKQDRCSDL
For test [5], the system named is Proteasome. Put plainly: Inhibition of proteasome (unknown origin). It is filed as subcellular, Homo sapiens.
The target of test [6] is T1, Monoglyceride lipase (Homo sapiens, UniProt Q99685).
T1 sequence (Q99685 whole entry): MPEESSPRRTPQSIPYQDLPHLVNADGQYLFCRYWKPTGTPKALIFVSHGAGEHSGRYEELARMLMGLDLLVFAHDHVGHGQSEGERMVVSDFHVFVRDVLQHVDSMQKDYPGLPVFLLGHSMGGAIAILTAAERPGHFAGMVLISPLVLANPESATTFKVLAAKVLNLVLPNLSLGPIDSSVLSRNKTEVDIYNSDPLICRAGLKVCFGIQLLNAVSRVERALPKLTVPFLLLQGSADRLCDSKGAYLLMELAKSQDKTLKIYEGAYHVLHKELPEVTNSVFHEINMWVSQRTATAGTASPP
Put plainly: Inhibition of MAGL (unknown origin).

Test [7] deals with Cathepsin B (Homo sapiens, UniProt P07858). The test is described as follows: Inhibition of cathepsin B (unknown origin).
Test [8] concerns the target T2, Tyrosine-protein phosphatase non-receptor type 11 (Homo sapiens) (UniProt Q06124).
T2 sequence (whole entry): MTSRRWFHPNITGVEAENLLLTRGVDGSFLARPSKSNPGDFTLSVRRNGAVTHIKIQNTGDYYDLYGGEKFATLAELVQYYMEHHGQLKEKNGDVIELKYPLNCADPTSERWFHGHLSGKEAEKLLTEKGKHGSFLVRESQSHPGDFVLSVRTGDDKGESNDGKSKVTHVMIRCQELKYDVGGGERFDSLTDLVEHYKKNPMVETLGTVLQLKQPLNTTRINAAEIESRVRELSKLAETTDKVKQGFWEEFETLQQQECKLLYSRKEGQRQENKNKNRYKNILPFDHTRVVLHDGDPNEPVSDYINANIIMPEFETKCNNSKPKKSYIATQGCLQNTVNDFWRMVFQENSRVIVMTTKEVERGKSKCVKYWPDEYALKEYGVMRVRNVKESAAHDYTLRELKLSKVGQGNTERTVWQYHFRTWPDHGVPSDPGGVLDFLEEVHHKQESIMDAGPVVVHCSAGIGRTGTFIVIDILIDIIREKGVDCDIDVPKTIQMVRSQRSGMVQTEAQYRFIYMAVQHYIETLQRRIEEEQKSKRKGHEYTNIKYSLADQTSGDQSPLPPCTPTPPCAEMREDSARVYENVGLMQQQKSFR
The test is described as follows: Inhibition of SHP2 (unknown origin) at 100 uM.

Test [9] concerns the target T2, Tyrosine-protein phosphatase non-receptor type 11 (Homo sapiens). The test is described as follows: Inhibition of SHP2 (unknown origin) at 50 uM.
Test [10] shares this target. The test is described as follows: Inhibition of SHP2 (unknown origin) at 20 uM.
The target is the same in test [11]. Put plainly: Inhibition of SHP2 (unknown origin) at 25 uM.
Test [12] shares this target. Put plainly: Inhibition of SHP2 (unknown origin) at 10 uM.
For test [13] the target is unchanged. Put plainly: Inhibition of SHP2 (unknown origin) at 5 uM.
The target in test [14] is T3, Tyrosine-protein phosphatase non-receptor type 11 (Homo sapiens, UniProt Q06124).
T3 sequence (Q06124 whole entry): T2 sequence (whole entry)
Put plainly: Inhibition of SHP2 (unknown origin).

Non-standard residues stand in square brackets, D forms with d. Residues, ends and D or L forms follow the SMILES beside them. Groups on a side chain read outwards from the residue. *: point of attachment. Phe(4-Br) = N[C@@H](Cc1ccc(Br)cc1)C(=O)O; Phe(4-Cl) = N[C@@H](Cc1ccc(Cl)cc1)C(=O)O; Phe(4-F) = N[C@@H](Cc1ccc(F)cc1)C(=O)O; 2Nal = N[C@@H](Cc1ccc2ccccc2c1)C(=O)O; NEt2 = CCN(CC)*

For `CCN(CC)C(=O)[C@H](Cc1ccc(OC)cc1)NC(=O)[C@H](CC(C)C)NC(=O)[C@@H](NC(=O)[C@@H](N)COC(=O)[C@@H]1CCCN1C(C)=O)C(C)C` (H-S([Pro-Ac])VLY(Me)-NEt2), the IC50 is greater than 50 µg/mL in test [1]; greater than 50 µg/mL in test [2]; greater than 100 µg/mL in [3]; greater than 145 µM in [4]; greater than 100 µg/mL in [5]; greater than 145 µM in test [6]. The compound also displayed an IC50 in [7] greater than 145 µM. For the same compound, the inhibition in test [8] came to 87%; in [9], 53%; in [10] it was 35%.

On to `CCN(CC)C(=O)[C@H](Cc1ccc(Br)cc1)NC(=O)[C@H](CC(C)C)NC(=O)[C@@H](NC(=O)[C@@H](N)COC(=O)[C@@H]1CCCN1C(C)=O)C(C)C` (H-S([Pro-Ac])VL[Phe(4-Br)]-NEt2), for which the IC50 in test [1] was greater than 50 µg/mL; in [2], greater than 50 µg/mL; in [3] it was greater than 100 µg/mL; in [4] it was greater than 136 µM; in test [5], greater than 100 µg/mL; in [6], greater than 136 µM. In test [7], the IC50 is greater than 136 µM. Also, the inhibition in test [8] came out at 86%; in test [9] it was 51%; in test [10], 20%.

Turning to `CCN(CC)C(=O)[C@H](Cc1ccc2ccccc2c1)NC(=O)[C@H](CC(C)C)NC(=O)[C@@H](NC(=O)[C@@H](N)COC(=O)[C@@H]1CCCN1C(C)=O)C(C)C` (H-S([Pro-Ac])VL[2Nal]-NEt2), the IC50 was greater than 50 µg/mL in [1]; greater than 50 µg/mL in [2]; greater than 100 µg/mL in test [3]; greater than 141 µM in test [4]; greater than 100 µg/mL in [5]; greater than 141 µM in [6]. The 50% inhibitory concentration (IC50) in [7] is greater than 141 µM; in test [14], 12.5 µM. The inhibition in test [8] amounted to 94%; in test [9], 76%; in test [10], 58%; in [11] it was 61%; in test [12], 47%; in test [13] it was 33%.

Regarding `CCN(CC)C(=O)[C@H](Cc1ccc(Cl)cc1)NC(=O)[C@H](CC(C)C)NC(=O)[C@@H](NC(=O)[C@@H](N)COC(=O)[C@H](CC(C)C)NC(C)=O)C(C)C` (H-S([Leu-Ac])VL[Phe(4-Cl)]-NEt2), the half-inhibitory concentration (IC50) in test [1] was greater than 50 µg/mL; in test [2], greater than 50 µg/mL; in test [3] it was greater than 100 µg/mL; in test [4], greater than 141 µM; in [5], greater than 100 µg/mL; in test [6] it was greater than 141 µM. The half-maximal inhibitory concentration (IC50) in test [7] was greater than 141 µM. The inhibition in test [8] came out at 89%; in test [9], 49%; in test [10], 21%.

Turning to `CCN(CC)C(=O)[C@H](Cc1ccc2ccccc2c1)NC(=O)[C@H](CC(C)C)NC(=O)[C@@H](NC(=O)[C@@H](N)COC(=O)[C@H](CC(C)C)NC(C)=O)C(C)C` (H-S([Leu-Ac])VL[2Nal]-NEt2), the half-maximal inhibitory concentration (IC50) in test [1] was greater than 50 µg/mL; in test [2] it was greater than 50 µg/mL; in [3], greater than 100 µg/mL; in test [4], greater than 138 µM; in test [5], greater than 100 µg/mL; in [6] it was greater than 138 µM. Moreover, the concentration for half-maximal inhibition (IC50) in test [7] is greater than 138 µM. For the same compound, the inhibition was determined as 93% in [8], 46% in [9] and 27% in test [10].

Take `CCN(CC)C(=O)[C@H](Cc1ccc(OC)cc1)NC(=O)[C@H](CC(C)C)NC(=O)[C@@H](NC(=O)[C@@H](N)COC(=O)[C@H](CC(C)C)NC(C)=O)C(C)C` (H-S([Leu-Ac])VLY(Me)-NEt2): the half-inhibitory concentration (IC50) in test [1] is greater than 50 µg/mL; in [2] it was greater than 50 µg/mL; in [3], greater than 100 µg/mL; in [4], greater than 142 µM; in test [5], greater than 100 µg/mL; in test [6], greater than 142 µM. In test [7], this compound registered a concentration for half-maximal inhibition (IC50) greater than 142 µM. Also, the inhibition worked out at 92% in test [8], 52% in [9] and 34% in test [10].

As to `CCN(CC)C(=O)[C@H](Cc1ccc(F)cc1)NC(=O)[C@H](CC(C)C)NC(=O)[C@@H](NC(=O)[C@@H](N)COC(=O)[C@@H]1CCCN1C(C)=O)C(C)C` (H-S([Pro-Ac])VL[Phe(4-F)]-NEt2), the IC50 in test [1] was greater than 50 µg/mL; in test [2], greater than 50 µg/mL; in test [3] it was greater than 100 µg/mL; in test [4], greater than 148 µM; in test [5], greater than 100 µg/mL; in test [6], greater than 148 µM. The IC50 was greater than 148 µM in test [7] and 31.9 µM in [14]. In addition, the inhibition was 95% in test [8]; 81% in test [9]; 44% in test [10]; 47% in test [11]; 23% in test [12]; 18% in test [13].

As to `CCN(CC)C(=O)[C@H](Cc1ccc(Cl)cc1)NC(=O)[C@H](CC(C)C)NC(=O)[C@@H](NC(=O)[C@@H](N)COC(=O)[C@@H]1CCCN1C(C)=O)C(C)C` (H-S([Pro-Ac])VL[Phe(4-Cl)]-NEt2), the IC50 in test [1] is greater than 50 µg/mL; in test [2] it was greater than 50 µg/mL; in test [3], greater than 100 µg/mL; in [4] it was greater than 144 µM; in [5] it was greater than 100 µg/mL; in [6] it was greater than 144 µM. Further, the IC50 in [7] was greater than 144 µM. In addition, the inhibition in test [8] worked out at 88%; in test [9], 46%; in test [10] it was 37%.

For `CCN(CC)C(=O)[C@H](Cc1ccccc1)NC(=O)[C@H](CC(C)C)NC(=O)[C@@H](NC(=O)[C@@H](N)COC(=O)[C@@H]1CCCN1C(C)=O)C(C)C` (H-S([Pro-Ac])VLF-NEt2), the IC50 is greater than 50 µg/mL in test [1]; greater than 50 µg/mL in test [2]; greater than 100 µg/mL in [3]; greater than 152 µM in test [4]; greater than 100 µg/mL in test [5]; greater than 152 µM in test [6]. In addition, the IC50 in test [7] was greater than 152 µM. For the same compound, the figures for the inhibition in test [8], in test [9] and in test [10] were 95%, 54% and 29%, respectively.

Take `CCN(CC)C(=O)[C@H](Cc1ccc(F)cc1)NC(=O)[C@H](CC(C)C)NC(=O)[C@@H](NC(=O)[C@@H](N)COC(=O)[C@H](CC(C)C)NC(C)=O)C(C)C` (H-S([Leu-Ac])VL[Phe(4-F)]-NEt2): the IC50 is greater than 50 µg/mL in [1]; greater than 50 µg/mL in test [2]; greater than 100 µg/mL in test [3]; greater than 144 µM in test [4]; greater than 100 µg/mL in test [5]; greater than 144 µM in test [6]. In [7], this compound yielded an IC50 greater than 144 µM. In addition, the inhibition worked out at 97% in [8], 55% in test [9] and 32% in test [10].

`CCN(CC)C(=O)[C@H](Cc1ccccc1)NC(=O)[C@H](CC(C)C)NC(=O)[C@@H](NC(=O)[C@@H](N)COC(=O)[C@H](CC(C)C)NC(C)=O)C(C)C` (H-S([Leu-Ac])VLF-NEt2): the 50% inhibitory concentration (IC50) was greater than 50 µg/mL in test [1]; greater than 50 µg/mL in test [2]; greater than 100 µg/mL in [3]; greater than 148 µM in test [4]; greater than 100 µg/mL in test [5]; greater than 148 µM in [6]. Further, the IC50 in [7] was greater than 148 µM; in [14], 36.8 µM. Further, the inhibition in test [8] was determined as 94%; in test [9], 83%; in test [10] it was 40%; in [11], 46%; in [12], 31%; in test [13] it was 12%.

As to `CCN(CC)C(=O)[C@H](Cc1ccc(Br)cc1)NC(=O)[C@H](CC(C)C)NC(=O)[C@@H](NC(=O)[C@@H](N)COC(=O)[C@H](CC(C)C)NC(C)=O)C(C)C` (H-S([Leu-Ac])VL[Phe(4-Br)]-NEt2), the concentration for half-maximal inhibition (IC50) was greater than 50 µg/mL in test [1]; greater than 50 µg/mL in [2]; greater than 100 µg/mL in test [3]; greater than 133 µM in test [4]; greater than 100 µg/mL in test [5]; greater than 133 µM in test [6]. In addition, the IC50 in test [7] was greater than 133 µM; in test [14] it was 33.2 µM. The inhibition in test [8] is 96%; in [9], 78%; in test [10] it was 46%; in test [11], 49%; in test [12], 26%; in [13], 21%.
